Measured values as given in patent US10947220B2, “Anti-proprotein convertase subtilisin kexin type 9 (anti-PCSK9) compounds and methods of using the same in the treatment and/or prevention of cardiovascular diseases” (Shifa Biomedical Corporation, priority 2016, dated 2021).
Read-outs that look alike come from different tables or passages of the source.

Legend:
[1] = biological target: T1, PCSK9/LDLR interaction (His-tagged PCSK9, recombinant LDLR-AB domain) (Homo sapiens, UniProt Q8NBP7); assay: PCSK9/LDLR binding in vitro ELISA (Circulex kit)
T1 construct: purchased Circulex
Protocol: For screening inhibitors of the PCSK9/LDLR interaction, different concentrations (0.01 nM-100 μM) of selected compounds were incubated with His-tagged PCSK9 and then added to wells that were pre-coated with recombinant LDLR-AB domain. After incubation, the plate was washed and the amount of recombinant His-tagged PCSK9 was measured using the biotinylated anti-His-tag and horseradish peroxidase conjugated Streptavidin, and quantitated using a BioTek Synergy 2 plate reader. The effect of each compound on the PCSK9 binding to the recombinant LDLR-AB domain was calculated.
Testing of compounds acquired from commercial sources was performed in our binding assay for their potential to inhibit the PCSK9/LDLR interaction. Initial screening was done using 100 μM of the compounds. Each compound was added to the binding reaction mixture in triplicate and assayed as described above. From the screening, a number of compounds were identified to have an effect on LDLR upregulation as compared to control (see Example 3 vide infra) while having no effect on PCSK9 processing and secretion (see Example 2 vide infra). Exemplary 2-carboxyanilide indoles and 2-carboxanilide pyrroles of the formula I that had >20% inhibition at 100 uM are shown in FIG. 1. Fifty five (55) structurally related 2-carboxyanlide benzofurans (compounds of the formulas II-IV) were also acquired. Compounds that inhibited the PCSK9/LDLR interaction were selected and analyzed using different compound concentrations ranging from 100 μM to 0.01 nM. […] (FIG. 4). Based on this preliminary SAR, an additional 34 compounds were designed and synthesized around SBC-115,337, and the compounds were tested in our binding assay as described in FIG. 4. From the screening, a number of benzofuran compounds were determined to have IC50's>10 uM but less </=50 uM (FIG. 2).

[2] = system: PCSK9 synthesis, processing and secretion; assay: Test for secreted PCSK9 (western blot) in transfected HEK-293T cells; assay type: cell-based; conditions: 25 μM, 43 hours; cells and media
Protocol: HEK-293T cells were seeded into 96 well plates in a DMEM containing 10% Fetal Bovine Serum media and incubated overnight at 37° C. Cells were transiently transfected with cDNA construct using the Lipofectamine-LTX. Compounds (25 μM) or vehicle were added, followed by additional 43 hours of incubation. Cellular PCSK9, secreted PCSK9, and cell viability were analyzed as described in Example 2 below.
The SBC compounds were validated for their ability to affect PCSK9 synthesis, processing and secretion as described in relation to FIG. 5.
The increase in the level of recombinant LDLR in the presence of PCSK9 by the above compounds could be either due to inhibiting the binding of PCSK9 to the LDLR or by inhibiting the processing and secretion of PCSK9. To eliminate the possibility these compounds interfere with PCSK9 synthesis, processing or secretion, we tested the effect of these compounds on the processing and secretion of PCSK9 as described above. HEK-293T cells were seeded into 96-well plates in a DMEM containing 10% Fetal Bovine Serum media and incubated overnight at 37° C. Cells were transiently transfected with cDNA construct using the Lipofectamine-LTX. Compounds (25 μM) or vehicle were added, followed by additional 43 hours of incubation. Cellular PCSK9, secreted PCSK9, and cell viability were analyzed for PCSK9 secretion using western blot analysis, imaged and quantitated using a LAS-4000 (GE).

LDLR = assay: Recombinant LDLR upregulation in HEK-293 cells transfected with LDLR/PCSK9; assay type: cell-based, human; conditions: recombinant LDLR upregulation assay
Protocol: HEK-293T cells were seeded in a DMEM containing 10% Fetal Bovine Serum media and incubated overnight at 37° C. Cells were transiently transfected with LDLR & PCSK9 cDNA constructs using the Lipofectamine-LTX as described above. After 24 hrs, cells were treated with different compounds and incubated for an additional 48 hrs. Cells were assayed as described above for LDLR expression.
HEK-293T cells were assayed as described in relation to FIG. 7.
We have constructed the expression vector of human LDLR under the control of the cytomegalovirus promoter-enhancer (pCMV-LDLR). In addition, a construct containing the PCSK9 (pCMV-PCSK9-FLAG) was described above. These constructs were used to transiently transfect mammalian cells, and both cell lysate and supernatant were subjected to SDS-PAGE and immunoblot analysis using an anti-PCSK9 or LDLR antibody. […] Addition of inhibitors of PCSK9 processing to the latter cells should result in decreased degradation of the LDLR and the appearance of the 160K Dalton band on the gel. Using this assay, we tested our compounds for their ability to reduce the degradation of the LDLR. HEK-293 cells were used in this assay. They were grown in 96-well plates overnight, and transfected with LDLR/PCSK9. Compounds dissolved in DMSO or vehicle were added to the culture media, and incubated for 24-48 hours; cells were lysed. Cell lysates were subjected to quantitation using the above immunoassay.

HepG2 cells = assay: Uptake of fluorescent Dil-LDL in HepG2 cells transfected with PCSK9; assay type: cell-based; conditions: 1.2 uM compound
Protocol: The SBC compounds were validated for their ability to increase uptake of Fluorescent Dil-LDL in HepG2 cells.
The SBC compounds were validated for their ability to increase uptake of Fluorescent Dil-LDL in HepG2 cells as described in FIG. 9.
In order to confirm that these PCSK9 antagonists upregulate functional LDLR, we tested the ability of these compounds to enhance the uptake of fluorescent Dil-LDL in HepG2 cells. Briefly, HepG2 cells transfected with PCSK9 (FIG. 4) were plated and allowed to grow overnight. Compounds were added to the cells followed by the addition of fluorescent Dil-LDL. Cells were washed extensively, and the fluorescent Dil-LDL taken up by the cells were measured using the Synergy 2 plate reader (FIG. 9 and FIG. 12). […] These compounds were selected for further analysis in the in vivo studies.

plasma LDL-C = assay: Efficacy in mice fed high fat diet (plasma LDL-C); assay type: in vivo, C57BL/6 mice
Protocol: C57/Black 6 mice and BalB/C mice were maintained on the HFD for 4 weeks. Blood plasma was collected at day 1 prior to injection of the SBC compounds. Blood plasma was collected at day 4, at 4 hours after the LPS injection, and again at 24 hours after LPS injection. Plasma cholesterol, LDL-C, HDL-C, and triglyceride levels were measured enzymatically.
Blood plasma was collected at day 1 prior to injection of the compounds. Blood plasma was collected again at day 5. Plasma LDL-C levels was measured enzymatically. (FIG. 15A) Representing the actual change in the LDL-C in mg/dL and (FIG. 15B) representing the % reduction of LDL-C after the administration of SBC-115,418 for 5 days.
SBC-115,337 was tested for efficacy in male mice (C57BL/6 mice). Mice were housed as four animals per cage under climate-controlled conditions of temperature (20-24° C.), humidity (60-70%), and alternating 12 h light/dark cycles. […]
Blood samples (75 μl) were collected 4 days after drug administration from the retro-orbital venous plexus via heparinized capillary tubes containing 2 USP units of ammonium heparin per tube (Carolina, Burlington, N.C.). […] Plasma cholesterol, LDL-C, HDL-C, and triglyceride levels were measured enzymatically.
Similarly, SBC-115,418 was tested in mice as described above. […] Plasma LDL-C levels were measured enzymatically. […]

[3] = Table 1 / FIG. 11, SAR around SBC-115,337, read-out: IC-50
[4] = bounds stated for compounds of FIG. 2 and FIG. 3, read-out: in vitro inhibition of the PCSK9/LDLR interaction (IC50)
[5] = compound concentrations 100 μM to 0.01 nM, FIG. 4, read-out: IC50, inhibition of the PCSK9/LDLR interaction

T1 sequence (Q8NBP7 153-692): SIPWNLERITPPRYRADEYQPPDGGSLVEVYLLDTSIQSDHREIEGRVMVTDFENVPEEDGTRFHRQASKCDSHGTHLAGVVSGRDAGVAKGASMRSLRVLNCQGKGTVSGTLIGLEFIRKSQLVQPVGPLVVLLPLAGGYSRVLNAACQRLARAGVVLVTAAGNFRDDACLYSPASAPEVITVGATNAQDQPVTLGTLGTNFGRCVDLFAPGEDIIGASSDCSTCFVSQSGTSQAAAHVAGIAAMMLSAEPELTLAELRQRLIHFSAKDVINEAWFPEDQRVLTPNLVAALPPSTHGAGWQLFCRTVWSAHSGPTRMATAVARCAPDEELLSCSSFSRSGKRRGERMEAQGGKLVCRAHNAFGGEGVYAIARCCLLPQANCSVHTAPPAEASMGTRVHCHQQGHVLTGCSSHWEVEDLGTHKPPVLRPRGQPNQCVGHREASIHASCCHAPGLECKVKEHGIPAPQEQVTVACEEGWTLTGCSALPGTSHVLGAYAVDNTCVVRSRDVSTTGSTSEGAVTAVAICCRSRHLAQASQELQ
T1 sequence (Q8NBP7 31-152 partner limits assumed): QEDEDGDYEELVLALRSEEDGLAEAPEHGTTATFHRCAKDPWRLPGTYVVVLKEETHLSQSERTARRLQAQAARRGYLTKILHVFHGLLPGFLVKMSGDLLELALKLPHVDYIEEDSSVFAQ

Row | IC50 [1, 3] [µM] | IC50 [1, 4] [µM] | IC50 [1, 5] [µM] | SMILES | effect on PCSK9 synthesis, processing and secretion [2] | level of LDLR as compared to control (DMSO-treated cells) (LDLR) | fluorescent Dil-LDL uptake (HepG2 cells) | reduction in LDL-C levels relative to high fat diet animal levels (plasma LDL-C; 3 mg/kg subcutaneously daily for 4 days, with or without LPS (5 mg/Kg), FIG. 10) | reduction in LDL-C levels relative to high fat diet animal levels (plasma LDL-C; 10 mg/kg oral daily for 5 days, FIG. 15A-15B)
1 | 1.1 | < 10 | – | O=C(Nc1ccc(C2=NCCO2)cc1)c1ccc(NC(=O)c2cc3ccccc3o2)cc1 [SBC-115,432] | not due to its effect on synthesis and secretion of PCSK9 | significant increase in the level of LDLR | significant increases in the Dil-LDL uptake | – | –
2 | 0.6 | < 10 | 0.5 | O=C(Nc1ccc(-c2nc3ccccc3o2)cc1)c1ccc(NC(=O)c2cc3ccccc3o2)cc1 [SBC-115,337] | – | – | increase in fluorescently labeled LDL uptake | 20-25% | –
3 | 8.2 | < 10 | – | CN(C(=O)c1ccc(NC(=O)c2cc3ccccc3o2)cc1)c1ccc(-c2nc3ccccc3o2)cc1 [SBC-115,423] | – | – | – | – | –
4 | – | < 10 | – | CN1C(=O)c2ccc(NC(=O)c3cc4ccccc4o3)cc2C1=O [SBC-115,341] | – | – | – | – | –
5 | – | < 10 | 7 | COc1ccc2oc(C(=O)Nc3ccc(C(N)=O)cc3)c(C)c2c1 [SBC-115,270] | – | – | increase in fluorescently labeled LDL uptake | – | –
6 | 1.7 | < 10 | – | NC(=O)c1ccc(NC(=O)c2ccc(NC(=O)c3cc4ccccc4o3)cc2)cc1 [SBC-115,424] | not due to its effect on synthesis and secretion of PCSK9 | significant increase in the level of LDLR | significant increases in the Dil-LDL uptake | – | –
7 | 2.4 | < 10 | – | O=C(Nc1ccc(-c2ncco2)cc1)c1ccc(NC(=O)c2cc3ccccc3o2)cc1 [SBC-115,433] | not due to its effect on synthesis and secretion of PCSK9 | significant increase in the level of LDLR | significant increases in the Dil-LDL uptake | – | –
8 | 2.2 | < 10 | – | COc1cccc2c(C)c(C(=O)Nc3ccc(C(=O)Nc4ccc(-c5ncco5)cc4)cc3)oc12 [SBC-115,445] | – | – | – | – | –
9 | – | < 10 | 9.5 | COc1cccc2cc(C(=O)Nc3ccc4c(c3)C(=O)N(C)C4=O)oc12 [SBC-115,202] | – | – | increase in fluorescently labeled LDL uptake | – | –
10 | 1.6 | < 10 | – | COc1ccc2oc(C(=O)Nc3ccc(C(=O)Nc4ccc(-c5nc6ccccc6o5)cc4)cc3)c(C)c2c1 [SBC-115,418] | not due to its effect on synthesis and secretion of PCSK9 | significant increase in the level of LDLR | significant increases in the Dil-LDL uptake | – | 20-25%
